Reference: paper PMC9596378, “Discovery and molecular basis of subtype-selective cyclophilin inhibitors” (Nature Chemical Biology, 2022)
Values joined by “and” are separate entries in the source; they are usually repeats but may differ in a detail not shown here. Equal values may be shown once. Read-outs that look alike come from different tables or passages of the source.

Columns and labels:
Test in all cases: Chymotrypsin coupled prolyl-isomerase assay;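 as to CypD prolyl-isomerase raw dose-response reading (Fig. 6c): observed rate constant per well from one-phase association fit in s−1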;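 as to PPIL1 prolyl-isomerase raw dose-response reading (Fig. 6c): Per-well observed rate constant from one-phase association fit in s−1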;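 as to PPWD1 prolyl-isomerase raw dose-response reading (Fig. 6c): Per-well observed rate constant from one-phase association fit in s−1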
CypD = CypD (Homo sapiens, UniProt P30405);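 as to CypD prolyl-isomerase raw dose-response reading (Fig. 6c): observed rate constant per well from one-phase association fit in s−1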
PPIL1 = target: T1, PPIL1 (Homo sapiens, UniProt Q9Y3C6); assay type: biochemical;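 as to PPIL1 prolyl-isomerase raw dose-response reading (Fig. 6c): Per-well observed rate constant from one-phase association fit in s−1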
T1 construct: PPIL1 (UniProtKB Entry Q9Y3C6: residues 1–166); made in house; host or cells: E. coli BL21(DE3)
T1 sequence (Q9Y3C6 1-166): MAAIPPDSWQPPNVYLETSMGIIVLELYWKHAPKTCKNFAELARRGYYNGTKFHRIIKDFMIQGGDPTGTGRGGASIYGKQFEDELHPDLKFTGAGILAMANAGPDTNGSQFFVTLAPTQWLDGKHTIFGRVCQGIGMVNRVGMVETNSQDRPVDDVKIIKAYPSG
Experimental: Adapting a previously described protocol[51], with an Agilent Bravo Velocity 11 with a 384ST head, 90 µL assay buffer (25 mM HEPES pH 7.3, 100 mM NaCl, 0.01% Triton X-100) containing 5.28 nM cyclophilin was added into a flat, clear-bottom, black 384-well plate pre-chilled in a Corning CoolBox at 2–3 °C. Five microliters of compound pre-dissolved in 5% DMSO/assay buffer was then added to appropriate wells and incubated at 2–3 °C for 5 min. Five microliters of 0.5 mM α-chymotrypsin from bovine pancreas (Type II, lyophilized powder, Millipore-Sigma) in 20% 1 mM HCl/Assay Buffer was then added to each well and incubated at 2–3 °C for 5 min. […] Using the internal liquid handling system of the FLIPR, 1 µL 0.5 mM Suc-AAPF-AMC (Chymotrypsin Substrate II, Millipore-Sigma) dissolved in 0.55 M LiCl/2,2,2-trifluoroethanol was added to each well, which was then mixed for 5 s, followed by immediate fluorescence measurements every 1 s for 330 s using a 360–380 nm excitation LED module and a 400–460 nm emission filter. Final concentrations of the plate include 5 nM cyclophilin, 0.25% DMSO, 25 µM α-chymotrypsin, 5 µM Suc-AAPF-AMC. Raw fluorescence data was analyzed by non-linear regression analysis with Prism v.9 by fitting one-phase association curves to each well. Analyses were halted after the calculated maximum fluorescent value owing to observed fluorescent bleaching during the sustained fluorescent plateau. Rate constants calculated for each well (s^−1) were then normalized to substrate only (no prolyl-isomerase) and enzyme + substrate only controls. IC50 values were calculated as the value at which 50% inhibition was achieved on the non-linear regression fitted curve of each compound.

PPWD1 = target: T2, PPWD1 (Homo sapiens, UniProt Q96BP3); assay type: biochemical;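 as to PPWD1 prolyl-isomerase raw dose-response reading (Fig. 6c): Per-well observed rate constant from one-phase association fit in s−1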
T2 construct: PPWD1 (UniProtKB Entry Q96BP3: residues 473–646); host or cells: E. coli BL21(DE3)
T2 sequence (Q96BP3 473-646): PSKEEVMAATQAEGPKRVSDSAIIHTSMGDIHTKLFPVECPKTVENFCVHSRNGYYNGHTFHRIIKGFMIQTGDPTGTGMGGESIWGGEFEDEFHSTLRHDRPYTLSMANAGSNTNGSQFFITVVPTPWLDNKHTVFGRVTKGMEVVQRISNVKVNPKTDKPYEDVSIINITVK

[1] = Wild-Type Cyclophilin Prolyl Isomerase Inhibition IC50 Values, CypD, wild-type CypD
[2] = prolyl-isomerase inhibition, 5 nM cyclophilin, read-out: IC50 PPIL1
[3] = wild-type PPIL1, read-out: Wild-Type Cyclophilin Prolyl Isomerase Inhibition IC50 Values, PPIL1
[4] = wild-type PPWD1, read-out: Wild-Type Cyclophilin Prolyl Isomerase Inhibition IC50 Values, PPWD1

CypD, sequence (P30405 45-207): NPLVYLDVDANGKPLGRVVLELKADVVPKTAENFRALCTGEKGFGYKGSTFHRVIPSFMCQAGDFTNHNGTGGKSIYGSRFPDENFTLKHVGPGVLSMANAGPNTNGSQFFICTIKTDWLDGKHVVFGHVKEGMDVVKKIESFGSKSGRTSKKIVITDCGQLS

NC(=O)C1CCNC(=O)C=CC(=O)N2CCCC(Cc3ccccc3)(C2)C(=O)NC(Cc2ccc(-c3ccc(C=O)c(B(O)O)c3)cc2)C(=O)NCc2ccccc2CC(=O)N1 (stereo not shown) [Compound C3A]
IC50 (CypD): 600 ± 100 nM
CypD prolyl-isomerase raw dose-response reading (Fig. 6c) (CypD; Dose 0.00114312 µM): 0.06909 and 0.06564 and 0.08467
CypD prolyl-isomerase raw dose-response reading (Fig. 6c) (CypD; Dose 0.00342936 µM): 0.0763 and 0.06566 and 0.07012
CypD prolyl-isomerase raw dose-response reading (Fig. 6c) (CypD; Dose 0.00457247 µM): 0.04911 and 0.0434 and 0.06663 and 0.05943 and 0.05791 and 0.04481
CypD prolyl-isomerase raw dose-response reading (Fig. 6c) (CypD; Dose 0.0102881 µM): 0.06833 and 0.05597 and 0.06694
CypD prolyl-isomerase raw dose-response reading (Fig. 6c) (CypD; Dose 0.0308642 µM): 0.07034 and 0.05622 and 0.06
CypD prolyl-isomerase raw dose-response reading (Fig. 6c) (CypD; Dose 0.0411523 µM): 0.05515 and 0.05553 and 0.04718 and 0.06514 and 0.05753 and 0.05809 and 0.04157
CypD prolyl-isomerase raw dose-response reading (Fig. 6c) (CypD; Dose 0.0925926 µM): 0.06297 and 0.05517 and 0.06275
CypD prolyl-isomerase raw dose-response reading (Fig. 6c) (CypD; Dose 0.277778 µM): 0.05848 and 0.04977 and 0.05604
CypD prolyl-isomerase raw dose-response reading (Fig. 6c) (CypD; Dose 0.833333 µM): 0.04291 and 0.04333 and 0.04298
CypD prolyl-isomerase raw dose-response reading (Fig. 6c) (CypD; Dose 2.5 µM): 0.03189 and 0.02949 and 0.03114
IC50 (CypD; IC50 CypD, Independent replicate 1, mean±SEM of 3 technical replicates): 700 ± 300 nM
IC50 (CypD; IC50 CypD, Independent replicate 2): 600 ± 300 nM
IC50 (CypD; IC50 CypD, Independent replicate 3): 410 ± 80 nM
IC50 (CypD; IC50 CypD, Independent replicate 4): ~700 nM
IC50 (CypD; [1]): 600 nM
PPIL1 prolyl-isomerase raw dose-response reading (Fig. 6c) (PPIL1; Dose 0.00114312 µM): 0.05471 and 0.0599 and 0.05622
PPIL1 prolyl-isomerase raw dose-response reading (Fig. 6c) (PPIL1; Dose 0.00342936 µM): 0.05168 and 0.05762 and 0.07551
PPIL1 prolyl-isomerase raw dose-response reading (Fig. 6c) (PPIL1; Dose 0.00457247 µM): 0.05739 and 0.05515 and 0.06362 and 0.05346 and 0.05755 and 0.06002 and 0.05207 and 0.04334
PPIL1 prolyl-isomerase raw dose-response reading (Fig. 6c) (PPIL1; Dose 0.0102881 µM): 0.04812 and 0.0449 and 0.05106
PPIL1 prolyl-isomerase raw dose-response reading (Fig. 6c) (PPIL1; Dose 0.0308642 µM): 0.06685 and 0.05223 and 0.05525
PPIL1 prolyl-isomerase raw dose-response reading (Fig. 6c) (PPIL1; Dose 0.0925926 µM): 0.05203 and 0.04221 and 0.05411
PPIL1 prolyl-isomerase raw dose-response reading (Fig. 6c) (PPIL1; Dose 0.277778 µM): 0.04184 and 0.0372 and 0.04929
PPIL1 prolyl-isomerase raw dose-response reading (Fig. 6c) (PPIL1; Dose 0.833333 µM): 0.02447 and 0.02506 and 0.03512
PPIL1 prolyl-isomerase raw dose-response reading (Fig. 6c) (PPIL1; Dose 2.5 µM): 0.0232 and 0.01951 and 0.02784
IC50 (PPIL1; Independent replicate 1, read-out: IC50 PPIL1): 400 ± 200 nM
IC50 (PPIL1; Independent replicate 2, read-out: IC50 PPIL1): 500 ± 200 nM
IC50 (PPIL1; Independent replicate 3, read-out: IC50 PPIL1): 250 ± 60 nM
IC50 (PPIL1; Independent replicate 4, read-out: IC50 PPIL1): 360 ± 80 nM
IC50 (PPIL1; [2]): 400 ± 100 nM
IC50 (PPIL1; [3]): 400 nM
PPWD1 prolyl-isomerase raw dose-response reading (Fig. 6c) (PPWD1; Dose 0.00457247 µM): 0.0469 and 0.04534 and 0.05629
PPWD1 prolyl-isomerase raw dose-response reading (Fig. 6c) (PPWD1; Dose 0.0137174 µM): 0.04565 and 0.04397 and 0.06065
PPWD1 prolyl-isomerase raw dose-response reading (Fig. 6c) (PPWD1; Dose 0.0411523 µM): 0.05156 and 0.0487 and 0.05013
PPWD1 prolyl-isomerase raw dose-response reading (Fig. 6c) (PPWD1; Dose 0.123457 µM): 0.04255 and 0.04648 and 0.048
PPWD1 prolyl-isomerase raw dose-response reading (Fig. 6c) (PPWD1; Dose 0.37037 µM): 0.04707 and 0.04395 and 0.05999
PPWD1 prolyl-isomerase raw dose-response reading (Fig. 6c) (PPWD1; Dose 1.11111 µM): 0.04661 and 0.0432 and 0.04546
PPWD1 prolyl-isomerase raw dose-response reading (Fig. 6c) (PPWD1; Dose 3.33333 µM): 0.03786 and 0.03919 and 0.04546
PPWD1 prolyl-isomerase raw dose-response reading (Fig. 6c) (PPWD1; Dose 10 µM): 0.02858 and 0.03234 and 0.0406
PPWD1 prolyl-isomerase raw dose-response reading (Fig. 6c) (PPWD1; Dose 16.6667 µM): 0.02581 and 0.0305 and 0.02503 and 0.03058 and 0.01822 and 0.02069 and 0.01922 and 0.02384
IC50 (PPWD1; Independent replicate 1, read-out: IC50 PPWD1): > 10000 nM
IC50 (PPWD1; Independent replicate 2, read-out: IC50 PPWD1): 8000 ± 4000 nM
IC50 (PPWD1; Independent replicate 3, read-out: IC50 PPWD1): 6000 ± 2000 nM
IC50 (PPWD1; Independent replicate 4, read-out: IC50 PPWD1): 9000 ± 3000 nM
IC50 (PPWD1; prolyl-isomerase inhibition, 5 nM cyclophilin, read-out: IC50 PPWD1): 8000 ± 2000 nM
IC50 (PPWD1; [4]): 8000 nM

NC(=O)[C@@H]1CCNC(=O)/C=C/C(=O)N2CCC[C@](Cc3ccccc3)(C2)C(=O)N[C@@H](Cc2ccc(-c3cccc(B(O)O)c3)cc2)C(=O)NCc2ccccc2CC(=O)N1 [Compound C6A]
IC50 (CypD; read-out: Wild-Type Cyclophilin Prolyl Isomerase Inhibition IC50 Values, CypD, wild-type CypD): 1100 nM
IC50 (PPIL1; [2]): ~5000 nM
IC50 (PPIL1; [3]): > 10000 nM
IC50 (PPWD1; [4]): > 10000 nM

NCCOCCNC(=O)C1CCNC(=O)C=CC(=O)N2CCCC(C2)C(=O)NC(Cc2ccco2)C(=O)NCc2ccccc2CC(=O)N1 (stereo not shown) [JOMBt]
IC50 (CypD): 17000 nM
IC50 (CypD; IC50 CypD trans, trans olefin isomer): 17000 ± 2000 nM
IC50 (CypD; [1]): 17000 nM
IC50 (PPIL1; [3]): 40000 nM
IC50 (PPWD1; [4]): > 100000 nM
